The text below walks through data of patent US20090042949A1, “Indoles Useful in the Treatment of Inflammation” (priority 2005, published 2009).

What is called IC50 is the concentration needed to halve the response being measured. Higher therefore signals weaker potency in that assay.

SMILES strings stand for the structures.

The assay addresses T1, mPGES-1 (Homo sapiens, UniProt O14684).
T1 construct: made in house; host or cells: E. coli
T1 sequence (O14684 1-152): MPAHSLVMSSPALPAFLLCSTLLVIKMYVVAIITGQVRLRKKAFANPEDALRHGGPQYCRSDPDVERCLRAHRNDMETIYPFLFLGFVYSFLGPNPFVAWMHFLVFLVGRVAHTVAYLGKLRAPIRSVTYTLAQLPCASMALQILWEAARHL
Description: mPGES-1 biological test (conversion of PGH2 to PGE2, HPLC analysis). The class given is biochemical. The following applies: mPGES-1 expressed in E. coli, membrane fraction; 25 min preincubation with inhibitor, 60 s with PGH2, room temperature. As for the experimental part: In the assay mPGES-1 catalyses the reaction where the substrate PGH2 is converted to PGE2. mPGES-1 is expressed in E. coli and the membrane fraction is dissolved in 20 mM NaPi-buffer pH 8.0 and stored at −80° C. In the assay mPGES-1 is dissolved in 0.1 M KPi-buffer pH 7.35 with 2.5 mM glutathione. The stop solution consists of H2O/MeCN (7/3), containing FeCl2 (25 mM) and HCl (0.15 M). The assay is performed at room temperature in 96-well plates. Analysis of the amount of PGE2 is performed with reversed phase HPLC (Waters 2795 equipped with a 3.9×150 mm C18 column). The mobile phase consists of H2O/MeCN (7/3), containing TFA (0.056%), and absorbance is measured at 195 nm with a Waters 2487 UV-detector.
The following is added chronologically to each well: • 1. 100 μL mPGES-1 in KPi-buffer with glutathione. Total protein concentration: 0.02 mg/mL. • 2. 1 μL inhibitor in DMSO. Incubation of the plate at room temperature for 25 minutes. • 3. 4 μL of a 0.25 mM PGH2 solution. Incubation of the plate at room temperature for 60 seconds. • 4. 100 μL stop solution. • 180 μL per sample is analyzed with HPLC.

Regarding `CC(C)(C)c1ccc(-c2ccc3c(c2)cc(C(=O)NCCS(=O)(=O)O)n3-c2ccc(OC3CCCC3)cc2)cc1` [Example 2, 2-{[5-(4-tert-Butylphenyl)-1-(4-cyclopentyloxyphenyl)indole-2-carbonyl]-amino}ethanesulfonic acid], the IC50 is 660 nM.
In turn, `CC(C)(C)c1ccc(-c2ccc3c(c2)cc(C(=O)NCC(=O)O)n3-c2ccc(OC3CCCC3)cc2)cc1` [Example 4, {[5-(4-tert-Butylphenyl)-1-(4-cyclopentyloxyphenyl)indole-2-carbonyl]-amino}acetic acid] had an IC50 of 1900 nM.
To `CN(CC(=O)O)C(=O)c1cc2cc(-c3ccc(C(C)(C)C)cc3)ccc2n1-c1ccc(OC2CCCC2)cc1` [Example 5, {[5-(4-tert-Butylphenyl)-1-(4-cyclopentyloxyphenyl)indole-2-carbonyl]-methylamino}acetic acid] belongs 740 nM; to `CC(C)(C)c1ccc(-c2ccc3c(c2)cc(C(=O)Nn2cnnc2)n3-c2ccc(OC3CCCC3)cc2)cc1` [Example 12, 5-(4-tert-Butylphenyl)-1-(4-cyclopentyloxyphenyl)indole-2-carboxylic acid[1,2,4]triazol-4-ylamide], 550 nM; to `CC(C)Oc1ccc(-n2c(C(=O)NS(C)(=O)=O)c(Cl)c3cc(-c4ccc(C(F)(F)F)cn4)ccc32)cc1` [Example 13, N-[3-Chloro-1-(4-isopropoxyphenyl)-5-(5-trifluoromethylpyridin-2-yl)indole-2-carbonyl]methanesulfonamide], 2700 nM.
